Measured values taken from patent US12624044B2, “SMARCA degraders and uses thereof” (Kymera Therapeutics, Inc., priority 2019, dated 2026).

Experiments:
Format in all cases: cell-based
SMARCA2 [1] = target: T1, SMARCA2 (Homo sapiens, UniProt P51531); assay: SMARCA2 Western blot MV4-11 degradation; conditions: for Dmax: MV4-11, MV4-11 cells, read-out: SMARCA2 WB MV411 degradation 24 h: Average Dmax %; for Dmax / DC50: 24 h; for DC50: read-out: SMARCA2 WB MV411 degradation 24 h: Average external-Abs DC50
Description: Cells were seeded into 6-well plates (MV4-11: 4×10^6 cells/well/1 ml) and 1 ml of 2× compound solution was added into the well to make the final concentration and the plates were mixed well and incubated for 24 hours (No cytotoxicity was observed). The cell were collected with media and spun at 3000 rpm for 5 minutes. The supernatant was aspirated and the well and the cells were washed with cold PBS once and combined for centrifugation again; the supernatant aspirated again. 200 ul pre-chilled RIPAlysis buffer (Boston BioProducts BP-115D) with protease/phosphatase inhibitor (Roche 05892791001/Roche 04906837001) was directly added into the tube to lyze the cells for 20 minutes on ice. The cell lysate were collected into EP tubes and spun at 13000 rpm for 20 minutes and 72 ul supernatant was transferred to a fresh EP tube containing 18 ul of 5× loading buffer (Beyotime Bio P0015) to make the loading samples. The samples were heated to 100° C. for 10 minutes and cooled to RT and microcentrifuged. 20 ul of samples were loaded onto SDS-PAGE gel (Novex, WG1402BOX) and the gel was run at 80 V for 20 minutes and 120 V for 1.5 hours. The samples were electrotransfer to a NC membrane using wet-transfer method with 250 mA for 2.5 hours. The membrane was blocked with LICOR blocking buffer (LI-COR, 927-50000) for 1 hour. The membrane was washed three times with TBST (CST #9997S), 5 minutes each. Incubation was performed with primary antibody prepared in blocking buffer with 0.1% Tween-20 (Solarbio, P8220) at 4° C. overnight (Anti-SMARCA2/BRM antibody (ab15597) 1:500; Anti-BRG1 antibody [EPR3912] (ab108318) 1:1000; Rabbit anti-Baf180 antibody [EPR15860] (Abcam, ab196022) 1:1000; mouse anti-beta-Actin (8H10D10) (CST #3700) 1:10000). The membrane was washed three times with TBST, 5 minutes each. Incubation with secondary antibody was performed for 1 hour at RT (anti-rabbit IgG (Licor, 926-32211) 1:5000; anti-mouse IgG (LI-COR, 926-68070) 1:5000). The membrane was washed three times with TBST, 5 minutes each and lastly the LiCOR was read.
The letter codes for the percentage of SMARCA degradation after 24 hours (Dmax %) include: A (>90% degradation), B (>70-90% degradation), C (50-70% degradation), and D (<50% degradation).

SMARCA4 = target: T2, SMARCA4 (Homo sapiens, UniProt P51532); assay: SMARCA4 Western blot MV4-11 degradation; conditions: for Dmax: MV4-11, MV4-11 cells, read-out: SMARCA4 WB MV411 degradation 24 h: Average Dmax %; for Dmax / DC50: 24 h; for DC50: read-out: SMARCA4 WB MV411 degradation 24 h: Average external-Abs DC50
T2 construct: SMARCA2 and SMARCA4 protein degradation in MV4-11 cells; endogenous in cells; host or cells: MV4-11
In short: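 MV4-11 cells treated with compound for 24 h, lysed in RIPA with protease/phosphatase inhibitors, and SMARCA2 and SMARCA4 (BRG1) levels assessed by Western blot with β-actin loading control and LI-COR fluorescent read-out. Maximal degradation (Dmax %) after 24 h binned into letter codes.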

SMARCA2 [2] = target: T1, SMARCA2; assay: MSD SMARCA2 degradation in A549 cell line; conditions: for Dmax: A549, A549 cells; for Dmax / DC50: 24 h; for DC50: read-out: SMARCA2 MSD A549 degradation 24 h: Average external-Abs DC50
In short: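 SMARCA2 remaining was measured by MSD electrochemiluminescence on RIPA lysates (anti-SMARCA2 plus SULFO-TAG anti-rabbit). Prior exposure: 24 h of A549 cells to a 10-point, 3-fold dilution series topping at 1000 nM final; Dmax % given as graded codes.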

T2 sequence (P51532 whole entry): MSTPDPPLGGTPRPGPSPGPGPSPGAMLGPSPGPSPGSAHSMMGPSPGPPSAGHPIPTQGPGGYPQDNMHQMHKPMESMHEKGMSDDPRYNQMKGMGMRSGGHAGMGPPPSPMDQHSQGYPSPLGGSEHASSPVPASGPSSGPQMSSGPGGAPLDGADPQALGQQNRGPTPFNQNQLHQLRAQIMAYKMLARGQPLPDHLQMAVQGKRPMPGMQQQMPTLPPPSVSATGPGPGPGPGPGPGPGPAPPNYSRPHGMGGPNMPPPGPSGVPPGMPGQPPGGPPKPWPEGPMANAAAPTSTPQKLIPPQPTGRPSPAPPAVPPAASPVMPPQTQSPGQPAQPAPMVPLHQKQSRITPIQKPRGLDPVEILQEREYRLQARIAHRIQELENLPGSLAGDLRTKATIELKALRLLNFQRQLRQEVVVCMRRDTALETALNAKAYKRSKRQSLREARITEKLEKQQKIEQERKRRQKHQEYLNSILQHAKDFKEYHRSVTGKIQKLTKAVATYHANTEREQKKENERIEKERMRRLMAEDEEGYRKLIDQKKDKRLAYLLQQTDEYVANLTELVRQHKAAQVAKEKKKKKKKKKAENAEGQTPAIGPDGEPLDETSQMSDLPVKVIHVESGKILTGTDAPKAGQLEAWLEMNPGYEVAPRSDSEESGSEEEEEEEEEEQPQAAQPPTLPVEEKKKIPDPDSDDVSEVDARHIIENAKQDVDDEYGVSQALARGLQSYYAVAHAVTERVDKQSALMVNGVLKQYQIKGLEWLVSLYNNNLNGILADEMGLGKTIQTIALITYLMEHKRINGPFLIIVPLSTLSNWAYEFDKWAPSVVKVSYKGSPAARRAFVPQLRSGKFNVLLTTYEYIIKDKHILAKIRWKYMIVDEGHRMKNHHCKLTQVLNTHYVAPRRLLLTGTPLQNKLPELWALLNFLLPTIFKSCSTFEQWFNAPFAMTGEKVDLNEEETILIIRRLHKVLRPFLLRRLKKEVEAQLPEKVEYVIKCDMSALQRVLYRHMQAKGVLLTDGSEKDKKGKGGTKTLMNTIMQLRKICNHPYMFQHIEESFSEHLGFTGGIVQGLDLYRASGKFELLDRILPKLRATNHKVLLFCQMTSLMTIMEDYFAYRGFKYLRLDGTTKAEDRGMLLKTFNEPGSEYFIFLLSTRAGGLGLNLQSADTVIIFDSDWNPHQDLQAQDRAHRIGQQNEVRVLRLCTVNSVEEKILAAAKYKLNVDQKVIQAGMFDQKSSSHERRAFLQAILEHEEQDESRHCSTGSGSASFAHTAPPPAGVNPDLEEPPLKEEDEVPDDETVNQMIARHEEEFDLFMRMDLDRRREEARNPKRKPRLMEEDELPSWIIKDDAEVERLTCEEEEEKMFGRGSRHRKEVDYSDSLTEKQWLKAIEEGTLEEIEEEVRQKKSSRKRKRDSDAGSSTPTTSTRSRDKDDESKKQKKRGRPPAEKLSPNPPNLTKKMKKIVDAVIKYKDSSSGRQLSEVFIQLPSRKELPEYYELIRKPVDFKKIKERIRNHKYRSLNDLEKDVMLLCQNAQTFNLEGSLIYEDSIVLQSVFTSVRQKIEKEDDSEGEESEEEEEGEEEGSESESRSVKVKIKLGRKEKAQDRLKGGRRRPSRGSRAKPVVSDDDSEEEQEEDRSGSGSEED
T1 sequence (P51531 whole entry): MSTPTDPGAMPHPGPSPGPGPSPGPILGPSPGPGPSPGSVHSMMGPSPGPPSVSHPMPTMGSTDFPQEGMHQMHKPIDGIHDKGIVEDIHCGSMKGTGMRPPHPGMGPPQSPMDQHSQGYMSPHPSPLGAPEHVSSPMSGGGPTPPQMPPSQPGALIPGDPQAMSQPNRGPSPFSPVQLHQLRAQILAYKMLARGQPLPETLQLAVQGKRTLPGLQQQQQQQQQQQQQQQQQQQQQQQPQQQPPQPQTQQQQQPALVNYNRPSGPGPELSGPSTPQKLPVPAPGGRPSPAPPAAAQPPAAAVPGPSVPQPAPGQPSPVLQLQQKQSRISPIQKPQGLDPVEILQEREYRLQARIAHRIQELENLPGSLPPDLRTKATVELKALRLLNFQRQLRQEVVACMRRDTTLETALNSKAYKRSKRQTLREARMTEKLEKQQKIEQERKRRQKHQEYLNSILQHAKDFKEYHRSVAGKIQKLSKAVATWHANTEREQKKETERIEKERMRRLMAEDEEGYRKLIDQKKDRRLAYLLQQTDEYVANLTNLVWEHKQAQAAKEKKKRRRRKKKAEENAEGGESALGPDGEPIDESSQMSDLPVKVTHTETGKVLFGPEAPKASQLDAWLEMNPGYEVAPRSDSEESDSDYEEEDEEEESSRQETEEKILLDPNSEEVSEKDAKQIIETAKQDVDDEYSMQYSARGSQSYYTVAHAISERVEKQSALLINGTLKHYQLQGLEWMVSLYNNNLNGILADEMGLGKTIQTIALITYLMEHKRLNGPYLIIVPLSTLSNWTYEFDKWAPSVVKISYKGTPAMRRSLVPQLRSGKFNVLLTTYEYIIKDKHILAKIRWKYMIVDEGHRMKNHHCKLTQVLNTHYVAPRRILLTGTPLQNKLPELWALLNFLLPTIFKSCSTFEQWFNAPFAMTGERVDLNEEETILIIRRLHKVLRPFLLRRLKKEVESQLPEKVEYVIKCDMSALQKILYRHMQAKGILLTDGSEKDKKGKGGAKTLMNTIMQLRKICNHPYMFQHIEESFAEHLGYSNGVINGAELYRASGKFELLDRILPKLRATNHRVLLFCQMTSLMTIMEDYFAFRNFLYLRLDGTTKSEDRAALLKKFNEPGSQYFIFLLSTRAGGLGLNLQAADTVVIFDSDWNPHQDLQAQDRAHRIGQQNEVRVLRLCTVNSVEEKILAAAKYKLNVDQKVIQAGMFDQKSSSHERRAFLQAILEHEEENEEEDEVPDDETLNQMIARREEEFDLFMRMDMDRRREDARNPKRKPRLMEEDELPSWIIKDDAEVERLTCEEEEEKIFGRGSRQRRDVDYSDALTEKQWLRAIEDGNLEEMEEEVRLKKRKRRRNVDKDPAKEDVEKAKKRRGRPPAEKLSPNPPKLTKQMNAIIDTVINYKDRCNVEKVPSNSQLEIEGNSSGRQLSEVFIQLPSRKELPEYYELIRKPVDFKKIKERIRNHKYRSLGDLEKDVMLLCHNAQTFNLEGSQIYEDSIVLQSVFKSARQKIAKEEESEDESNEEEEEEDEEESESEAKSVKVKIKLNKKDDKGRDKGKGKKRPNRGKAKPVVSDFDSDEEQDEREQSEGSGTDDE

SMILES | Dmax (SMARCA2 [1]) [%] | DC50 (SMARCA2 [1]; MV4-11 cells) [nM] | Dmax (SMARCA4) [%] | DC50 (SMARCA4; MV4-11 cells) [nM] | Dmax (SMARCA2 [2]) [%] | DC50 (SMARCA2 [2]; A549 cells) [nM] | SMARCA2 WB MV411 degradation 24 h: Average Dmax % (SMARCA2 [1]; MV4-11 cells) | SMARCA4 WB MV411 degradation 24 h: Average Dmax % (SMARCA4; MV4-11 cells) | SMARCA2 MSD A549 degradation 24 h: Average Dmax % (SMARCA2 [2]; A549 cells)
CC(=O)Nc1cc(-c2scnc2C)ccc1CNC(=O)[C@@H]1C[C@@H](O)CN1C(=O)[C@@H](NC(=O)[C@H]1CC[C@H](c2cnc(N3C4CCC3CN(c3cc(-c5ccccc5O)nnc3N)C4)nc2)CC1)C(C)(C)C [I-430, (2S,4R)—N-(2-acetamido-4-(4-methylthiazol-5-yl)benzyl)-1-((2S)-2-((1r,4S)-4-(2-(3-(3-amino-6-(2-hydroxyphenyl)pyridazin-4-yl)-3,8-diazabicyclo [3.2.1]octan-8-yl)pyrimidin-5-yl)cyclohexanecarboxamido)-3,3-dimethylbutanoyl)-4-hydroxypyrrolidine-2-carboxamide] | > 90 | < 100 | > 90 | < 100 | > 90 | < 100 |  |  | 
Cc1ncsc1-c1ccc(CNC(=O)[C@@H]2C[C@@H](O)CN2C(=O)[C@@H](NC(=O)[C@H]2CC[C@H](Cc3ccc(-c4cnc(N5C6CCC5CN(c5cc(-c7ccccc7O)nnc5N)C6)nc4)cc3)CC2)C(C)(C)C)cc1 [I-437] | > 90 | < 100 | > 90 | 100 to 500 | > 90 | < 100 |  |  | 
Cc1ncsc1-c1ccc(CNC(=O)[C@@H]2C[C@@H](O)CN2C(=O)[C@@H](NC(=O)[C@H]2CC[C@H](CCCCCN3CCC(Cn4cc(-c5cc(-c6ccccc6O)nnc5N)cn4)CC3)CC2)C(C)(C)C)cc1 [I-378] | > 90 | < 100 | > 90 | < 100 | > 90 | 100 to 500 |  |  | 
Cc1ncsc1-c1ccc(CNC(=O)[C@@H]2C[C@@H](O)CN2C(=O)[C@@H](NC(=O)[C@H]2CC[C@H](CN3CCC(c4cnc(N5C6CCC5CN(c5cc(-c7ccccc7O)nnc5N)C6)nc4)CC3)CC2)C(C)(C)C)cc1 [I-375] | > 90 | < 100 | 50 to 70 | 501 to 1000 | > 90 | 100 to 500 |  |  | 
Cc1ncsc1-c1ccc(CNC(=O)[C@@H]2C[C@@H](O)CN2C(=O)[C@@H](NC(=O)CN2CCN([C@H]3CC[C@@H](c4cnc(N5C6CCC5CN(c5cc(-c7ccccc7O)nnc5N)C6)nc4)CC3)CC2)C(C)(C)C)cc1 (single isomer, unassigned) [I-445] | > 90 | < 100 | > 90 | < 100 | > 90 | 100 to 500 |  |  | 
Cc1ncsc1-c1ccc(CNC(=O)[C@@H]2C[C@@H](O)CN2C(=O)[C@@H](NC(=O)C23CCC(CN4CCC(c5cnc(N6C7CCC6CN(c6cc(-c8ccccc8O)nnc6N)C7)nc5)CC4)(CC2)CC3)C(C)(C)C)cc1 [I-425] | > 90 | < 100 | 70 to 90 | 100 to 500 | > 90 | < 100 |  |  | 
Cc1ncsc1-c1ccc(CNC(=O)[C@@H]2C[C@@H](O)CN2C(=O)[C@@H](NC(=O)[C@H]2CC3(C2)C[C@H](N2CCC(c4cnc(N5C6CCC5CN(c5cc(-c7ccccc7O)nnc5N)C6)nc4)CC2)C3)C(C)(C)C)cc1 (stereo partly drawn) [I-423] | > 90 | < 100 | 50 to 70 | 100 to 500 | > 90 | < 100 |  |  | 
Cc1ncsc1-c1ccc(CNC(=O)[C@@H]2C[C@@H](O)CN2C(=O)[C@@H](NC(=O)[C@H]2C[C@]3(C2)C[C@H](c2cnc(N4C5CCC4CN(c4cc(-c6ccccc6O)nnc4N)C5)nc2)C3)C(C)(C)C)c(C(F)(F)F)c1 (stereo partly drawn) [I-420] |  | < 100 |  | 100 to 500 |  | 100 to 500 | B (B (>70-90% degradation)) | D (D (<50% degradation)) | A (A (>90% degradation))
Cc1ncsc1-c1ccc(CNC(=O)[C@@H]2C[C@@H](O)CN2C(=O)[C@@H](NC(=O)[C@H]2CC[C@H](c3cnc(N4C5CCC4CN(c4cc(-c6ccccc6O)nnc4N)C5)nc3)CC2)C(C)(C)C)c(OC(F)(F)F)c1 [I-405] | > 90 | < 100 | > 90 | 100 to 500 | > 90 | < 100 |  |  | 
Cc1ncsc1-c1ccc(CNC(=O)[C@@H]2C[C@@H](O)CN2C(=O)[C@@H](NC(=O)C2CCC(c3cnc(N4C5CCC4CN(c4cc(-c6ccccc6O)nnc4N)C5)nc3)CC2C)C(C)(C)C)cc1 (stereo partly drawn) [I-411] | > 90 | < 100 | > 90 | < 100 | 50 to 70 | 501 to 1000 |  |  | 
Cn1c(=O)n(C2CCC(=O)NC2=O)c2cccc(C3CCC(N4CCC(n5cc(-c6cc(-c7ccccc7O)nnc6N)cn5)CC4)CC3)c21 (stereo not drawn) [I-321] | > 90 | < 100 | > 90 | < 100 | > 90 | < 100 |  |  | 
Cc1ncsc1-c1ccc(CNC(=O)[C@@H]2C[C@@H](O)CN2C(=O)[C@@H](NC(=O)CN2C3CCC2CC(c2cnc(N4C5CCC4CN(c4cc(-c6ccccc6O)nnc4N)C5)nc2)C3)C(C)(C)C)cc1 (stereo partly drawn) [I-509] | 70 to 90 | < 100 | 70 to 90 | > 1000 | > 90 | 100 to 500 |  |  | 
Cc1ncsc1-c1ccc(CNC(=O)[C@@H]2C[C@@H](O)CN2C(=O)[C@@H](NC(=O)C23CCC(CN4CCC(n5cc(-c6cc(-c7ccccc7O)nnc6N)cn5)CC4)(CC2)CC3)C(C)(C)C)cc1 [I-428] | > 90 | < 100 | 70 to 90 | 100 to 500 | > 90 | 100 to 500 |  |  | 
Cc1ncsc1-c1ccc(CNC(=O)[C@@H]2C[C@@H](O)CN2C(=O)[C@@H](NC(=O)CN2CCC(c3cnc(N4C5CCC4CN(c4cc(-c6ccccc6O)nnc4N)C5)nc3)CC2)C(C)(C)C)c(C(F)(F)F)c1 [I-522] | > 90 | < 100 | 70 to 90 | > 1000 | 70 to 90 | 100 to 500 |  |  | 
Cc1ncsc1-c1ccc(CNC(=O)[C@@H]2C[C@@H](O)CN2C(=O)[C@@H](NC(=O)[C@H]2C[C@@]3(C2)C[C@H](c2cnc(N4C5CCC4CN(c4cc(-c6ccccc6O)nnc4N)C5)nc2)C3)C(C)(C)C)cc1 (stereo partly drawn) [I-369] |  | < 100 |  | < 100 |  | < 100 |  |  | 
Cn1c(=O)n(C2CCC(=O)NC2=O)c2ccc(C3CC4(C3)CC(N3CCC(c5cnc(N6C7CCC6CN(c6cc(-c8ccccc8O)nnc6N)C7)nc5)CC3)C4)cc21 (single isomer, unassigned) [I-536 (P1), 3-(5-(6-(4-(2-(3-(3-amino-6-(2-hydroxyphenyl)pyridazin-4-yl)-3,8-diazabicyclo[3.2.1]octan-8-yl)pyrimidin-5-yl)piperidin-1-yl)spiro[3.3]heptan-2-yl)-3-methyl-2-oxo-2,3-dihydro-1H-benzo[d]imidazol-1-yl)piperidine-2,6-dione] |  | < 100 |  | < 100 |  | < 100 |  |  | 
Cc1ncsc1-c1ccc(CNC(=O)[C@@H]2C[C@@H](O)CN2C(=O)[C@@H](NC(=O)[C@H]2CC3(C2)C[C@H](c2cnc(N4C5CCC4CN(c4cc(-c6ccccc6O)nnc4N)C5)nc2)C3)C(C)(C)C)cc1 (stereo partly drawn) [I-368] | > 90 | < 100 | > 90 | < 100 | > 90 | < 100 |  |  | 
Cc1ncsc1-c1ccc(CNC(=O)[C@@H]2C[C@@H](O)CN2C(=O)[C@@H](NC(=O)[C@H]2CC=C(c3cnc(N4C5CCC4CN(c4cc(-c6ccccc6O)nnc4N)C5)nc3)CC2)C(C)(C)C)cc1 [I-407] | > 90 | < 100 | > 90 | < 100 | > 90 | 100 to 500 |  |  | 
